Measured values: PubChem BioAssay (NCI)
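Exposure lasted 48 hours, with cells grown in 96-well plates and compounds tested at five concentrations. TGI denotes the concentration required for complete inhibition of growth.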

Tests used:
Test in all cases: DTP human tumour cell line panel, 48 h
[1] = system: HL-60(TB) leukemia
[2] = system: MALME-3M melanoma
[3] = system: M14 melanoma
[4] = system: SNB-19 CNS
[5] = system: CAKI-1 renal
[6] = system: HCT-15 colon
[7] = system: HCT-116 colon
[8] = system: UO-31 renal
[9] = system: TK-10 renal
[10] = system: M19-MEL melanoma
[11] = system: DMS 114 small cell lung
[12] = system: OVCAR-5 ovarian
[13] = system: NCI-H522 lung
[14] = system: SK-MEL-28 melanoma
[15] = system: EKVX NSCLC
[16] = system: HOP-62 NSCLC
[17] = system: SK-MEL-5 melanoma
[18] = system: U251 CNS
[19] = system: SF-295 CNS
[20] = system: HOP-92 NSCLC
[21] = system: SNB-78 CNS
[22] = system: ACHN renal
[23] = system: SNB-75 CNS
[24] = system: KM20L2 colon
[25] = system: MOLT-4 leukemia
[26] = system: UACC-62 melanoma
[27] = system: CCRF-CEM leukemia
[28] = system: SK-OV-3 ovarian
[29] = system: OVCAR-4 ovarian
[30] = system: OVCAR-8 ovarian
[31] = system: NCI-H23 lung
[32] = system: SF-268 CNS
[33] = system: KM12 colon
[34] = system: 786-0 renal
[35] = system: A549 NSCLC
[36] = system: SF-539 CNS
[37] = system: HOP-18 NSCLC
[38] = system: RXF 393 renal
[39] = system: RPMI-8226 leukemia
[40] = system: HT29 colon
[41] = system: COLO 205 colon
[42] = system: SW-620 colon
[43] = system: NCI-H460 lung
[44] = system: K-562 leukemia
[45] = system: LXFL 529 NSCLC
[46] = system: SN12C renal
[47] = system: A498 renal
[48] = system: SK-MEL-2 melanoma
[49] = system: UACC-257 melanoma
[50] = system: OVCAR-3 ovarian
[51] = system: IGROV1 ovarian
[52] = system: DLD-1 colon
[53] = system: NCI-H226 lung
[54] = system: XF 498 CNS
[55] = system: SR leukemia
[56] = system: HCC-2998 colon
[57] = system: RXF-631 renal
[58] = system: DMS 273 small cell lung
[59] = system: LOX IMVI melanoma

Compound: Cc1ccc(C2=C(c3ccccc3)C(Br)(c3ccccc3)C(c3ccccc3)=C2c2ccc(C)cc2)cc1
- TGI [1]: > 100 µM
- TGI [2]: > 100 µM
- TGI [3]: > 100 µM
- TGI [4]: > 100 µM
- TGI [5]: > 100 µM
- TGI [6]: > 100 µM
- TGI [7]: > 100 µM
- TGI [8]: > 100 µM
- TGI [9]: > 100 µM
- TGI [10]: > 100 µM
- TGI [11]: > 100 µM
- TGI [12]: > 100 µM
- TGI [13]: > 100 µM
- TGI [14]: > 100 µM
- TGI [15]: > 100 µM
- TGI [16]: > 100 µM
- TGI [17]: > 100 µM
- TGI [18]: > 100 µM
- TGI [19]: > 100 µM
- TGI [20]: > 100 µM
- TGI [21]: > 100 µM
- TGI [22]: > 100 µM
- TGI [23]: > 100 µM
- TGI [24]: > 100 µM
- TGI [25]: > 100 µM
- TGI [26]: > 100 µM
- TGI [27]: > 100 µM
- TGI [28]: > 100 µM
- TGI [29]: > 100 µM
- TGI [30]: > 100 µM
- TGI [31]: > 100 µM
- TGI [32]: > 100 µM
- TGI [33]: > 100 µM
- TGI [34]: > 100 µM
- TGI [35]: > 100 µM
- TGI [36]: > 100 µM
- TGI [37]: > 100 µM
- TGI [38]: > 100 µM
- TGI [39]: > 100 µM
- TGI [40]: > 100 µM
- TGI [41]: > 100 µM
- TGI [42]: > 100 µM
- TGI [43]: > 100 µM
- TGI [44]: > 100 µM
- TGI [45]: > 100 µM
- TGI [46]: > 100 µM
- TGI [47]: > 100 µM
- TGI [48]: > 100 µM
- TGI [49]: > 100 µM
- TGI [50]: > 100 µM
- TGI [51]: > 100 µM
- TGI [52]: > 100 µM
- TGI [53]: > 100 µM
- TGI [54]: > 100 µM

Compound: N#CN1CCC=C(c2cc3ccccc3[nH]2)C1
- TGI [1]: > 448 µM
- TGI [2]: > 448 µM
- TGI [4]: > 448 µM
- TGI [5]: > 448 µM
- TGI [6]: > 448 µM
- TGI [7]: > 448 µM
- TGI [9]: > 448 µM
- TGI [10]: > 448 µM
- TGI [12]: > 448 µM
- TGI [13]: 298 µM
- TGI [55]: > 448 µM
- TGI [14]: > 448 µM
- TGI [15]: > 448 µM
- TGI [16]: > 448 µM
- TGI [17]: > 448 µM
- TGI [18]: > 448 µM
- TGI [19]: > 448 µM
- TGI [20]: 427 µM
- TGI [22]: > 448 µM
- TGI [24]: > 448 µM
- TGI [25]: > 448 µM
- TGI [26]: > 448 µM
- TGI [27]: > 448 µM
- TGI [56]: > 448 µM
- TGI [28]: > 448 µM
- TGI [30]: > 448 µM
- TGI [31]: > 448 µM
- TGI [32]: > 448 µM
- TGI [33]: > 448 µM
- TGI [57]: > 448 µM
- TGI [34]: > 448 µM
- TGI [35]: > 448 µM
- TGI [36]: > 448 µM
- TGI [37]: > 448 µM
- TGI [38]: > 448 µM
- TGI [39]: > 448 µM
- TGI [40]: > 448 µM
- TGI [58]: > 448 µM
- TGI [41]: > 448 µM
- TGI [42]: > 448 µM
- TGI [43]: > 448 µM
- TGI [44]: > 448 µM
- TGI [45]: > 448 µM
- TGI [46]: > 448 µM
- TGI [59]: > 448 µM
- TGI [48]: > 448 µM
- TGI [49]: > 448 µM
- TGI [50]: 339 µM
- TGI [51]: > 448 µM
- TGI [52]: > 448 µM
- TGI [53]: > 448 µM
